{
  "source": "patent US20220205982A1",
  "about": "(CHILDREN'S HOSPITAL MEDICAL CENTER, priority 2019, published 2022)",
  "key": {"[1]": {"experiment": "Clinical outcome and toxicity after melphalan full dose in RIC allogeneic HCT (engraftment, chimerism, mucositis, VOD, GVHD)", "type": "in vivo, human", "method": "(§1) Patients undergoing allogeneic HCT for non-malignant disorders with a uniform RIC regimen that included alemtuzumab, fludarabine and melphalan were enrolled in this study. Full standard dose of melphalan was set as follows: • 140 mg/m^2 in patients having a body weight >10 kg, • 4.7 mg/kg in patients having a body weight <10 kg, and • 70 mg/m^2 in one patient with a radio sensitivity disorder.\n(§2) Blood samples were obtained for PK measurement after the administration of test dose and the full standard dose of melphalan. A total of 10 blood samples were obtained around each dose of melphalan: at baseline (5-10 min prior to start of the melphalan infusion of) and then approximately at 5 min, 15 min, 30 min, 45 min, 60 min, 2 hour, 2.5, 4, and 6 hours after the end of the melphalan infusion. Samples were collected on ice and transported to the institution's mass spectrometry laboratory for instant analysis by PS-MS/MS and conventional LC-MS/MS. Patient data collected for analysis included baseline organ function, presence of oral and gastrointestinal mucositis, renal and liver dysfunction including VOD, initial donor chimerism, graft rejection, and acute and chronic GVHD (aGVHD and cGVHD). The Common Terminology Criteria for Adverse Events (CTCAE) version 4.0 was used to evaluate adverse events. Acute and chronic GVHD were assessed by standardized published criteria. See, e.g., Glucksberg H, et al. Transplantation. 1974; 18:295-304 and Filipovich A H, et al. Biol Blood Marrow Transplant. 2005; 11:945-956. Interim analyses were completed after enrollment of 5 patients and 10 patients respectively to validate data following 25% and 50% of intended total patient enrollment. The AUC range that led to full donor chimerism without excess toxicity in majority of patients was selected to be the desired target AUC for full dose adjustment. In patients with baseline impaired organ function, personalized full dose melphalan was adjusted to limit toxicity if test dose PK predicted standard full dose AUC was higher than the desired target AUC range."}, "[2]": {"settings": "cited from earlier work"}, "[3]": {"settings": "ambient temperature; hydrolyzed to monohydroxymelphalan, then dihydroxymelphalan; cited from earlier work"}, "plasma proteins": {"test_system": "plasma proteins", "settings": "cited from earlier work"}, "[4]": {"experiment": "Melphalan test dose and full dose pharmacokinetics in patients undergoing RIC allogeneic HCT for non-malignant disorders (Bayesian analysis of plasma concentrations)", "type": "in vivo, human", "settings": "for AUC: human, plasma, intravenous", "method": "as §1\nThe patients were given a test dose of melphalan (10% of the standard full dose) prior to start of their preparative regimen. Test dose of 10% of the full standard dose was determined to be the lowest dose level that would be measurable for a sufficiently long time interval (0-4h) to allow reliable AUC estimation. Accordingly, the test doses used in this study were 14 mg/m^2, 7 mg/m^2 and 0.47 mg/kg for patients having the standard full doses of 140 mg/m^2, 70 mg/m^2 and 4.7 mg/kg, respectively.\nas §2\nMelphalan levels were measured by validated PS-MS/MS and LC-MS\\MS methods (Mirkou A, etc., J Chromatogr B Analyt Technol Biomed Life Sci. 2009; 877:3089-3096). For the PS-MS/MS method, all samples were analyzed using an automated Paper Spray ion source (Prosolia, Inc. Indianapolis, Ind.) interfaced with a TSQ Quantum Ultra mass spectrometer (Thermo Scientific, San Jose, Calif.) operated in selected reaction monitoring (SRM) mode. XCalibur software was used to control the MS and to process data. Specific precursor/product ions were simultaneously monitored for melphalan and its stable isotopically-labelled internal standard (D8-melphalan) by collision-induced dissociation (CID). Blood samples were prepared by spiking known amounts of melphalan standards and the internal standard into drug free human blood to establish a calibration curve and quality control samples. A small amount of patient's blood […] equilibrated with D8-melphalan solution was deposited on the Paper Spray cartridge and dried. A small volume of solvent optimized to efficiently extract the drug was applied to the paper. A stepwise high voltage (3-5 kV) was then applied inducing an electrospray ionization at the tip of the paper; the solvent evaporates from the droplets generating gas phase ions of the analyte, which then can be detected by a mass spectrometer. […]"}, "[5]": {"settings": "five patients, adjusted full dose"}, "[6]": {"settings": "sixth patient, initial HCT, full dose 0.44 mg/kg"}, "[7]": {"settings": "sixth patient, second HCT, full dose 1.2 mg/kg"}, "[8]": {"settings": "a 4-month infant, normal renal and liver function for age"}},
  "note": "Read-outs that look alike come from different tables or passages of the source.",
  "data": [
    {"smiles": "N[C@@H](Cc1ccc(N(CCCl)CCCl)cc1)C(=O)O", "note": "[melphalan, 4-[Bis(2-chloroethyl)amino]-L-phenylalanine]", "values": [
      {"measurement": "donor chimerism at engraftment", "setting": "[1]; [5]", "value": "≥ 99", "unit": "%"},
      {"measurement": "patients who developed VOD", "setting": "[1]; [5]", "value": "None"},
      {"measurement": "patients with grade 3 mucositis", "setting": "[1]; [5]", "value": "all 5"},
      {"measurement": "patients who developed GVHD", "setting": "[1]; four patients", "value": 15, "unit": "%"},
      {"measurement": "patients who developed grade 1 acute GVHD of skin", "setting": "[1]; human, in vivo", "value": "Two"},
      {"measurement": "patients who developed limited chronic GVHD", "setting": "[1]; human, in vivo", "value": "two"},
      {"measurement": "VOD of the liver or other excessive toxicity", "setting": "[1]; [6]", "value": "did not develop VOD of the liver or other excessive toxicity"},
      {"measurement": "graft outcome", "setting": "[1]; [6]", "value": "developed secondary graft failure"},
      {"measurement": "whole blood donor chimerism", "setting": "[1]; [6]", "value": 79, "unit": "%"},
      {"measurement": "VOD of the liver or other excessive toxicity", "setting": "[1]; [7]", "value": "without developing VOD of the liver or other excessive toxicity"},
      {"measurement": "donor chimerism", "setting": "[1]; [7]", "value": 100, "unit": "%"},
      {"measurement": "patients who developed VOD of the liver", "setting": "[1]; standard dose melphalan", "value": "Two"},
      {"measurement": "patients who developed grade 1 mucositis", "setting": "[1]; standard dose melphalan", "value": "one"},
      {"measurement": "patients who developed grade 2 mucositis", "setting": "[1]; standard dose melphalan", "value": 5, "unit": "patients"},
      {"measurement": "patients who developed grade 3 mucositis", "setting": "[1]; standard dose melphalan", "value": "Ten"},
      {"measurement": "patients who developed grade 4 mucositis", "setting": "[1]; standard dose melphalan", "value": "one"},
      {"measurement": "patients who developed primary graft failure", "setting": "[1]; standard dose melphalan", "value": "None"},
      {"measurement": "donor chimerism at engraftment", "setting": "[1]; standard dose melphalan, all patients", "value": "> 95", "unit": "%"},
      {"measurement": "inter-patient variability in melphalan exposure", "setting": "[2]; adults undergoing autologous HCT for multiple myeloma", "value": "up to 5 fold"},
      {"measurement": "contribution of renal elimination to melphalan clearance", "setting": "[2]; in vivo", "value": "low"},
      {"measurement": "penetration into cerebrospinal fluid (CSF)", "setting": "[2]; in vivo", "value": "low"},
      {"measurement": "steady-state volume of distribution", "setting": "[2]; in vivo", "value": "about 0.5 L/kg"},
      {"measurement": "stability in blood and plasma", "setting": "[3]", "value": "unstable"},
      {"measurement": "interactions with immunoglobulins", "setting": "plasma proteins", "value": "negligible"},
      {"measurement": "melphalan (covalently) irreversibly bound to plasma proteins", "setting": "plasma proteins; plasma", "value": "Approximately 30%"},
      {"measurement": "test dose clearance", "setting": "[4]; [8]", "value": 15.7, "unit": "L/h/70 kg"},
      {"measurement": "test dose predicted full dose AUC", "setting": "[4]; [8]", "value": 11.1, "unit": "µg·h/mL"},
      {"measurement": "AUC", "setting": "[4]; 0.44 mg/kg, sixth patient, initial HCT, full dose 0.44 mg/kg (9.3% of standard dose), read-out: AUC achieved", "value": 1100, "unit": "ng·h/mL"},
      {"measurement": "AUC", "setting": "[4]; 0.47 mg/kg, median and range, patients <10 kg, normal organ function, n=5, dose 0.47 mg/kg, read-out: test dose AUC", "value": 560, "unit": "ng·h/mL"},
      {"measurement": "AUC", "setting": "[4]; 1.2 mg/kg, sixth patient, second HCT, full dose 1.2 mg/kg (25.5% of standard dose), read-out: actual observed AUC", "value": 3900, "unit": "ng·h/mL"},
      {"measurement": "AUC", "setting": "[4]; 4.7 mg/kg, infant who developed VOD, read-out: full dose melphalan AUC", "value": 6900, "unit": "ng·h/mL"},
      {"measurement": "AUC", "setting": "[4]; 4.7 mg/kg, median and range, patients <10 kg, standard dose 4.7 mg/kg, n=6, read-out: full dose AUC", "value": 4800, "unit": "ng·h/mL"},
      {"measurement": "AUC", "setting": "[4]; 14 mg/m2, median and range, patients >10 kg, normal organ function, n=11, dose 14 mg/m^2, read-out: test dose AUC", "value": 520, "unit": "ng·h/mL"},
      {"measurement": "AUC", "setting": "[4]; 70 mg/m^2, patient with VOD and diffuse alveolar hemorrhage, ataxia telangiectasia, read-out: full dose melphalan AUC", "value": 5000, "unit": "ng·h/mL"},
      {"measurement": "AUC", "setting": "[4]; 140 mg/m2, median and range, patients >10 kg, standard dose 140 mg/m2, n=11, read-out: full dose AUC", "value": 5500, "unit": "ng·h/mL"},
      {"measurement": "AUC", "setting": "[4]; 140 mg/m2, patient with grade 4 mucositis and gastrointestinal bleeding, read-out: full dose AUC (highest melphalan exposure)", "value": 9500, "unit": "ng·h/mL"},
      {"measurement": "AUC", "setting": "[4]; five patients, adjusted full dose 29% to 70% of standard dose, read-out: actual observed AUC with the adjusted dose", "value": "3600 to 5400", "unit": "ng·h/mL"},
      {"measurement": "AUC", "setting": "[4]; median and range, 16 patients with normal organ function, read-out: test dose AUC", "value": 550, "unit": "ng·h/mL"},
      {"measurement": "AUC", "setting": "[4]; median and range, 17 patients who received standard full dose, read-out: full dose AUC", "value": 5500, "unit": "ng·h/mL"},
      {"measurement": "AUC", "setting": "[4]; median and range, six patients (7 transplants) with impaired organ function, adjusted full dose, read-out: test dose AUC", "value": 840, "unit": "ng·h/mL"},
      {"measurement": "AUC", "setting": "[4]; median in the 12/17 (70.6%) patients with AUC between 3.5 and 6.5, read-out: full dose AUC", "value": 5200, "unit": "ng·h/mL"},
      {"measurement": "AUC", "setting": "[4]; median, PK-adjusted full dose, N = 6 (7), read-out: Full dose AUC", "value": 3900, "unit": "ng·h/mL"}
    ]}
  ]
}
